# Source: patent US20040038855A1 (priority 1999, published 2004)
# Counter-ions that a name gives are not always drawn. Like-named read-outs stand apart in the source and are kept apart here.
# Key:
# human GALR1 receptor = biological target: T1, human GALR1 receptor (Homo sapiens, UniProt P47211); experiment: Binding affinity at the human GALR1 receptor
# T1 construct: expressed in transfected cells
# T1 sequence (P47211 1-349): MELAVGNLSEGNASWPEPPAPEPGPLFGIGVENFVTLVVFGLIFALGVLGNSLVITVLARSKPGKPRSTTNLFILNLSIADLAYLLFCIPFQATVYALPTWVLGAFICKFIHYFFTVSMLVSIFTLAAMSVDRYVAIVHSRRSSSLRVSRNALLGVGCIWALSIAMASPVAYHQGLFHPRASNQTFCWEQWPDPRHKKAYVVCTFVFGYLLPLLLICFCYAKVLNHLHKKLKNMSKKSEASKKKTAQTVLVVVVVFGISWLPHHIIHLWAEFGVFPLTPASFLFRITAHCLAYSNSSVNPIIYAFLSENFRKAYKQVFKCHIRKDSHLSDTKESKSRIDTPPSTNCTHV
# human GALR2 receptor = biological target: T2, human GALR2 receptor (Homo sapiens, UniProt O43603); experiment: Binding affinity at the human GALR2 receptor
# T2 construct: expressed in transfected cells
# T2 sequence (O43603 1-387): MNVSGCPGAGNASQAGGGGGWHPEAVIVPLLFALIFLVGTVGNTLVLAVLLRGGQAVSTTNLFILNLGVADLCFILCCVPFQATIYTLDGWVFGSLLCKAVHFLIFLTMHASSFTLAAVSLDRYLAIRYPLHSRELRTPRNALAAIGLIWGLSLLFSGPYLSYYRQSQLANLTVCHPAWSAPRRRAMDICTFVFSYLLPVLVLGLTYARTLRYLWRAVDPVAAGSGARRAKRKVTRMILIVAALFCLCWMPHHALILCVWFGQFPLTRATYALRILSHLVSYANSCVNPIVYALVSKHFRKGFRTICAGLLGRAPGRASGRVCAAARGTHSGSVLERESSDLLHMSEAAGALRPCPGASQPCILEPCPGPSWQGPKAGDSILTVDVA
# rat 5HT2C receptor = biological target: T3, rat 5HT2C receptor (Rattus norvegicus, UniProt P08909); experiment: Binding affinity at the rat 5HT2C receptor
# T3 construct: expressed in transfected cells
# T3 sequence (P08909 33-460): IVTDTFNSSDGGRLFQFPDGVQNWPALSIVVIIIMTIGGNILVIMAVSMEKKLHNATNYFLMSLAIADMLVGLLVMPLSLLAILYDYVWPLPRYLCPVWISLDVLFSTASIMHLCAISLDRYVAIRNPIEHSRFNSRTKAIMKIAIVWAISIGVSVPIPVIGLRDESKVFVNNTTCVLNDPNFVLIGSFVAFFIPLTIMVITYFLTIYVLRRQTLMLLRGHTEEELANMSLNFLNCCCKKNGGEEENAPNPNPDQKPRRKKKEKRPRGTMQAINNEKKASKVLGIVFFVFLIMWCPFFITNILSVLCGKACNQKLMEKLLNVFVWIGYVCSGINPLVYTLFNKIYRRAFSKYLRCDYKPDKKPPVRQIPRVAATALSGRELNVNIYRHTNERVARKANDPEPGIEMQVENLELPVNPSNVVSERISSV
# In short: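 Affinity measured by a literature binding protocol using rat 5HT2C cDNA expressed heterologously.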
# human MCH1 receptor = human MCH1 receptor (Homo sapiens, UniProt Q99705); experiment: Competition binding, membrane preparations of A293 cells expressing the human MCH1 receptor, [3H] Compound 10 as radioligand; parameters: expressed in transfected cells
# human MCH1 receptor, sequence (Q99705 whole entry): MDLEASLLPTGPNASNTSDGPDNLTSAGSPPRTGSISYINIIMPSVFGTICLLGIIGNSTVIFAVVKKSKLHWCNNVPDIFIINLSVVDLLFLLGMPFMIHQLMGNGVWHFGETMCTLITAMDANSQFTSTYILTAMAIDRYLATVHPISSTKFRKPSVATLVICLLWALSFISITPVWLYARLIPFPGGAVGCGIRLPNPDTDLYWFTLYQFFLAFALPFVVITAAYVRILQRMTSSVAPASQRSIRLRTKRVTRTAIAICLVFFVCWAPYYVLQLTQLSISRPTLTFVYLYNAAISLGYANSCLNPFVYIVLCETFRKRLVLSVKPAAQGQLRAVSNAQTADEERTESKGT
# Description: TRITIATED METHYL (4S)-3-{[(3-{4-[3-(ACETYLAMINO)PHENYL]-1-[…]}PROPYL)AMINO]CARBONYL}-4-(3,4-DIFLUOROPHENYL)-6-(METHOXYMETHYL)-2-OXO-1,2,3,4-TETRAHYDRO-5-PYRIMIDINECARBOXYLATE ([^3H] COMPOUND 10): This radiochemical synthesis was carried out by Amersham Pharmacia Biotech, Cardiff, Wales. A methanolic solution of methyl (4S)-3-({[3-(4-[3-(acetylamino)phenyl]-3,6-dihydro-1(2H)pyridinyl)propyl]amino}carbonyl)-4-(3,4-difluorophenyl)-6-(methoxymethyl)-2-oxo-1,2,3,4-tetrahydro-5-pyrimidinecarboxylate was exposed to tritium gas at 1 atmosphere pressure in the presence of 5% palladium on carbon with stirring overnight to give the tritiated methyl (4S)-3-{[(3-{4-[3-(acetylamino)phenyl]-1-piperidinyl}propyl)amino]carbonyl}-4-(3,4-difluorophenyl)-6-(methoxymethyl)-2-oxo-1,2,3,4-tetrahydro-5-pyrimidinecarboxylate ((+)-isomer) After purification by reverse phase HPLC (Hypersil ODS, 4.6×100 mm, methanol:H2O:Et3N 10:90:1 to 100:0:1 in 15 min at 1.0 mL/min, with radiochemical and UV detection), this product was used as a radioligand in the MCH1 binding assays. The same procedure was carried out with H2 gas in place of ^3H2 to afford the non-radioactive version of Compound 10.
# [1] = Table 3b, A293 cell membranes, [3H] Compound 10, read-out: hMCH1* Ki
Molecule,"Ki (human GALR1 receptor; Table 3a, read-out: hGALR1 Ki) [µM]","Ki (human GALR1 receptor; Table 3b, read-out: hGALR1 Ki) [µM]","Ki (human GALR2 receptor; Table 3a, read-out: hGALR2 Ki) [µM]","Ki (human GALR2 receptor; Table 3b, read-out: hGALR2 Ki) [µM]","Ki (rat 5HT2C receptor; Table 3a, read-out: r5HT2C Ki) [µM]","Ki (rat 5HT2C receptor; Table 3b, read-out: r5HT2C Ki) [µM]",Ki (human MCH1 receptor; [1]) [nM],"Ki (human MCH1 receptor; Table 3e, read-out: hMCH1 Ki) [nM]","Ki (human MCH1 receptor; Table 3d, read-out: hMCH1 Ki) [nM]",Ki (human GALR1 receptor) [µM],"Ki (human GALR1 receptor; read-out: hGALR1 Ki, Table 3b) [µM]",Ki (human GALR2 receptor) [µM],"Ki (human GALR2 receptor; read-out: hGALR2 Ki, Table 3b) [µM]",Ki (human MCH1 receptor) [nM],"Ki (human MCH1 receptor; read-out: hMCH1 Ki, Table 3e) [nM]","Ki (human MCH1 receptor; read-out: hMCH1 Ki, Table 3d) [nM]",Ki (rat 5HT2C receptor) [µM],"Ki (rat 5HT2C receptor; read-out: r5HT2C Ki, Table 3b) [µM]"
"2-(3,4-DIFLUOROPHENYL)4,5-DIHYDROIMIDAZOLE-1-CARBOXYLIC ACID {3-[4-PHENYL-4-(4-BROMO-5-METHYLTHIOPNEN-2-YL)]-PROPYL}-AMIDE [Example 19]",> 50,> 50,> 50,> 50,11.7,11.7,3,3,3,–,–,–,–,–,–,–,–,–
"COC(=O)C1=C(C)NC(=O)N(C(=O)NCCCN2CCC3(CC2)OCc2ccccc23)C1c1ccc2nonc2c1 (single isomer, unassigned) [Example 18, HYDROCHLORIDE]",–,–,–,–,32.6,–,–,–,–,> 50,> 50,> 50,> 50,4,–,–,–,–
"CCC1=C(C(=O)O)C(c2ccc(F)c(F)c2)N(C(=O)NCCCN2CCC3(CC2)OCc2ccccc23)C(=O)N1 (single isomer, unassigned; (+)) [Example 4, (+)-1,2,3,6-TETRAHYDRO-1-1N-[4-(BENZO-4′,5′(H)FURAN)PIPERIDIN-1-YL]PROPYL}-CARBOXAMIDO-4-ETHYL-6-(3,4-DIFLUOROPHENYL)-2-OXO-PYRIMIDINE-5 CARBOXYLIC ACID HYDROCHLORIDE]",> 50,> 50,> 50,> 50,34.8,–,131,–,–,–,–,–,–,–,–,–,–,–
"COCC1=C(C(=O)OC)C(c2ccc(F)c(F)c2)N(C(=O)NCCCN2CCC(c3cccc(NC(C)=O)c3)CC2)C(=O)N1 (single isomer, unassigned; (-)) [Example 1, (−)-1,2,3,6-TETRAHYDRO-1-{N-[4-(3,-ACETAMIDO)-PHENYLPIPERIDIN-1-YL]PROPYL}CARBOXAMIDO-4-METHOXYMETHYL-6-(3,4-DIFLUORO-PHENYL)-2-OXOPYRIMIDINE-5-CARBOXYLIC ACID METHYL ESTER]",> 50,> 50,> 50,> 50,> 50,> 50,40,–,–,–,–,–,–,–,–,–,–,–
CCCCN(CCCC)c1ccc(CN2CCC(CNC(=O)N3C(=O)NC(C)=C(C(=O)OC)C3c3ccc4nonc4c3)CC2)cc1 (stereo not shown) [Example 6],11.1,11.1,14.9,14.9,25.5,25.5,463,–,–,–,–,–,–,–,–,–,–,–
"COCC1=C(C(=O)OC)[C@H](c2ccc(F)c(F)c2)N(C(=O)NCCCN2CCC(c3cccc(NC(C)=O)c3)CC2)C(=O)N1 [Example 10, (+)-1,2,3,6-TETRAHYDRO-1-{N-[4-(3,-ACETAMIDO)-PHENYLPIPERIDIN-1-YL]PROPYL}CARBOXAMIDO-4-METHOXYMETHYL-6-(3,4-DIFLUORO-PHENYL)-2-OXOPYRIMIDINE-5-CARBOXYLIC ACID METHYL ESTER]",> 50,> 50,> 50,> 50,29.6,–,0.08,–,–,–,–,–,–,–,–,–,–,–
"CCCCN(CCCC)c1ccc(CNC[C@H]2CC[C@H](NC(=O)c3cccc4ccccc34)CC2)cc1 [Example 13, N1-[4-([4-(DIBUTYLAMINO)BENZYL]AMINOMETHYL)CYCLOHEXYL]-1-NAPHTH-AMIDE]",11.3,11.3,4.73,4.73,25,25,171,–,–,–,–,–,–,–,–,–,–,–
"COC(=O)C1=C(C)NC(=O)N(C(=O)NCCCN2CCC3(CC2)OCc2ccccc23)C1c1ccc(F)c(F)c1 (stereo not shown) [Example 20, 4-(3,4-DIFLUORPHENYL)-6-METHYL-2-OXO-3-{[3-(4-SPIRO[ISOBENZOFURAN-1(3H),4′-PIPERIDINE]PROPYL}-1,2,3,4-TETRAHYDROPYRIMIDINE-5-CARBOXYLIC ACID METHYL ESTER]",–,–,–,–,15.1,15.1,–,–,–,> 50,> 50,> 50,> 50,6,6,6,–,–
O=C(CCCN1CCC(O)(c2ccc(Cl)cc2)CC1)c1ccc(Cl)cc1 [Example 29],–,–,–,–,–,–,–,–,–,> 50,> 50,> 50,> 50,350,–,–,> 50,> 50
